From US9212168B2 (priority 2011, dated 2015) come the findings set out here.

For the first assay, the system named is HCV genotype 1a replicon. In words: HCV genotype 1a replicon assay (NS3 protease activity readout). It is filed as cell-based, hepatitis C virus. The following applies: HCV genotype 1a replicon. A digest of the protocol:
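EC50 values came from a 4-parameter robust fit of fluorescence (ex 340, em 509 nm) produced by NS3-specific protease in lysates, assayed with 15 μM FRET substrate for 20 min at 37° C, after 48 or 72 hours of compound exposure (0.5% DMSO) of Huh7.5-derived APC89 genotype 1a replicon cells.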
Consider `COC(=O)N[C@H](C(=O)N1C[C@@H](C)C[C@H]1c1nc(-c2ccc(-c3cc(Cl)c(NC(=O)c4ccc(N5CCN(C(=O)[C@H]6CC6(C)C)C[C@H]5C)nc4)cc3C(F)(F)F)cc2)c[nH]1)C(C)C` [Example 1-31], for which the “Genotype 1a” value is on record as “D (D represents pEC50>10 (EC50<0.1 nM))”.

Turning to `COC(=O)N[C@H](C(=O)N1C[C@@H](C)C[C@H]1c1nc(-c2ccc(-c3ccc(C(=O)Nc4ccc(N5C[C@H](C)N(C(=O)C(C)(C)NC(=O)C6CC6)C[C@H]5C)nc4)cc3OC(F)(F)F)cc2)c[nH]1)C(C)C` [Example 4-39], the “Genotype 1a” value is “C (C represents pEC50 between and 9 and about 10, (EC50 between 1 nM and 0.1 nM))”.

On to `COC(=O)N[C@H](C(=O)N1C[C@@H](C)C[C@H]1c1nc(-c2ccc(-c3cc(Cl)c(NC(=O)c4ccc(N5CCN(C(=O)[C@H]6CCCN6C(=O)C6CC6)C[C@H]5C)nc4)cc3OC(F)(F)F)cc2)c[nH]1)C(C)C` [Example 1-51], for which the “Genotype 1a” value is recorded as “D (D represents pEC50>10 (EC50<0.1 nM))”.

For `COC(=O)N[C@H](C(=O)N1C[C@@H](OC)C[C@H]1c1nc(-c2ccc(-c3ccc(NC(=O)c4ccc(N5CCN(C(=O)C(C)(C)CO)C[C@H]5C)nc4)cc3OC(F)(F)F)cc2)c[nH]1)C(C)C` [Example 27-7], the “Genotype 1a” value was “D (D represents pEC50>10 (EC50<0.1 nM))”.

For `COC(=O)NC(C(=O)N1C[C@@H](OC)C[C@H]1c1nc(-c2ccc(-c3cc(Cl)c(NC(=O)c4ccc(N5CCN(C(=O)C(C)(C)C)C[C@H]5C)nc4)cc3C(F)(F)F)cc2)c[nH]1)C1CCS(=O)(=O)CC1` (single isomer, unassigned) [Example 19-18], the “Genotype 1a” value was “C (C represents pEC50 between and 9 and about 10, (EC50 between 1 nM and 0.1 nM))”.

As to `COC(=O)N[C@H](C(=O)N1C[C@@H](C)C[C@H]1c1nc(-c2ccc(-c3cc(Cl)c(NC(=O)c4ccc(N5CCN(C(=O)C6CC67CC7)C[C@H]5C)nc4)cc3C(F)(F)F)cc2)c[nH]1)C(C)C` (some centres unmarked) [Example 1-89], the “Genotype 1a” value is “D (D represents pEC50>10 (EC50<0.1 nM))”.

Consider `COC(=O)NC(C(=O)N1C[C@@H](C)C[C@H]1c1nc(-c2ccc(-c3cc(Cl)c(C(=O)Nc4ccc(N5CCN(C(=O)C(C)(C)C)C[C@H]5C)nc4)cc3OC(F)(F)F)cc2)c[nH]1)C1C[C@@H](C)O[C@@H](C)C1` (some centres unmarked) [Example 23-2], for which the “Genotype 1a” value is “D (D represents pEC50>10 (EC50<0.1 nM))”.

`COC(=O)N[C@H](C(=O)N1C[C@@H](C)C[C@H]1c1nc(-c2ccc(-c3ccc(C(=O)Nc4ccc(N5C[C@H](C)N(C(=O)NC(C)C)C[C@H]5C)nc4)cc3OC(F)(F)F)cc2)c[nH]1)C(C)C` [Example 4-25]: the “Genotype 1a” value is “C (C represents pEC50 between and 9 and about 10, (EC50 between 1 nM and 0.1 nM))”.

On to `COC(=O)N[C@H](C(=O)N1C[C@@H](C)C[C@H]1c1nc(-c2ccc(-c3cc(Cl)c(NC(=O)c4ccc(N5CCN(C(=O)C(C)(C)CO)C(CO)C5)nc4)cc3OC(F)(F)F)cc2)c[nH]1)C(C)C` (some centres unmarked) [Example 14-3], for which the “Genotype 1a” value was “C (C represents pEC50 between and 9 and about 10, (EC50 between 1 nM and 0.1 nM))”.

Turning to `COC(=O)N[C@H](C(=O)N1C[C@@H](C)C[C@H]1c1nc(-c2ccc(-c3cc(F)c(NC(=O)c4ccc(N5CCN(C(=O)[C@]6(C)CCCN6C(=O)OC(C)(C)C)C[C@H]5C)nc4)cc3OC(F)(F)F)cc2)c[nH]1)C(C)C` [Example 1-26], the “Genotype 1a” value is “D (D represents pEC50>10 (EC50<0.1 nM))”.

In the case of `COC(=O)N[C@H](C(=O)N1C[C@@H](C)C[C@H]1c1nc(-c2ccc(-c3ccc(C(=O)Nc4ccc(N5C[C@H](C)N(C(=O)C6CC6(F)F)C[C@H]5C)nc4)cc3OC(F)(F)F)cc2)c[nH]1)C(C)C` (some centres unmarked) [Example 4-22], the “Genotype 1a” value is “C (C represents pEC50 between and 9 and about 10, (EC50 between 1 nM and 0.1 nM))”.

On to `COC(=O)N[C@H](C(=O)N1C[C@@H](C)C[C@H]1c1nc(-c2ccc(-c3ccc(C(=O)Nc4ccc(N5C[C@H](C)N(C(=O)[C@@H](C)NC(=O)C6CC6)C[C@H]5C)nc4)cc3OC(F)(F)F)cc2)c[nH]1)C(C)C` [Example 4-40], for which the “Genotype 1a” value is on record as “D (D represents pEC50>10 (EC50<0.1 nM))”.

For the compound `COC(=O)N[C@H](C(=O)N1C[C@@H](C)C[C@H]1c1nc(-c2ccc(-c3cc(Cl)c(NC(=O)c4ccc(N5CCN(C(C)=O)C[C@H]5C)nc4)cc3OC(F)(F)F)cc2)c[nH]1)C(C)C` [Example 1-66], the “Genotype 1a” value was “C (C represents pEC50 between and 9 and about 10, (EC50 between 1 nM and 0.1 nM))”.

In the case of `COC(=O)N[C@@H](C(=O)N1C[C@@H](C)C[C@H]1c1nc(-c2ccc(-c3cc(Cl)c(NC(=O)c4ccc(N5CCN(C(=O)C(C)(C)C)C[C@H]5C)nc4)cc3C(F)(F)F)cc2)c[nH]1)C1CCCCC1` [Example 19-3], the “Genotype 1a” value was “A (A represents a pEC50 value between 6 and 8 (EC50 between 1 μM and 10 nM))”.

In the case of `COC(=O)N[C@H](C(=O)N1C[C@@H](C)C[C@H]1c1nc(-c2ccc(-c3ccc(C(=O)Nc4ccc(N5C[C@H](C)N(C(=O)[C@@]6(O)CC6(C)C)C[C@H]5C)nc4)cc3OC(F)(F)F)cc2)c[nH]1)C(C)C` [Example 4-38], the “Genotype 1a” value is “C (C represents pEC50 between and 9 and about 10, (EC50 between 1 nM and 0.1 nM))”.

On to `COC(=O)N[C@H](C(=O)N1C[C@@H](C)C[C@H]1c1nc(-c2ccc(-c3cc(F)c(NC(=O)c4ccc(N5C[C@H](C)N(C(=O)c6c[nH]cn6)C[C@H]5C)nc4)cc3C(F)(F)F)cc2)c[nH]1)C(C)C` [Example 1-21], for which the “Genotype 1a” value is on record as “D (D represents pEC50>10 (EC50<0.1 nM))”.

Regarding `COC(=O)N[C@H](C(=O)N1C[C@@H](C)C[C@H]1c1nc(-c2ccc(-c3cc(Cl)c(NC(=O)c4ccc(N5CCN(C(=O)C(O)C(F)(F)F)C[C@H]5C)nc4)cc3OC(F)(F)F)cc2)c[nH]1)C(C)C` (some centres unmarked) [Example 1-97], the “Genotype 1a” value is “C (C represents pEC50 between and 9 and about 10, (EC50 between 1 nM and 0.1 nM))”.

As to `COC(=O)N[C@H](C(=O)N1[C@@H](C)CC[C@H]1c1nc(-c2ccc(-c3ccc(C(=O)Nc4ccc(N5CCN(C(=O)C(C)(C)C)C[C@H]5C)nc4)cc3OC(F)(F)F)cc2)c[nH]1)C(C)C` [Example 18-4], the “Genotype 1a” value is “C (C represents pEC50 between and 9 and about 10, (EC50 between 1 nM and 0.1 nM))”.

Consider `COC(=O)NC(C(=O)N1CC(F)CC1c1nc(-c2ccc(-c3cc(Cl)c(NC(=O)c4ccc(N5CCN(C(=O)C(C)(C)CO)CC5C)nc4)cc3OC(F)(F)F)cc2)c[nH]1)C(C)C` (centres unmarked) [Example 29-3], for which the “Genotype 1a” value is “C (C represents pEC50 between and 9 and about 10, (EC50 between 1 nM and 0.1 nM))”.

The same assay, now with this note: Hepatitis C virus, read-out: Genotype 1a, HCV genotype 1a replicon.
Take `COC(=O)N[C@H](C(=O)N1C[C@@H](N(C)C)C[C@H]1c1nc(-c2ccc(-c3ccc(C(=O)Nc4ccc(N5CCN(C(=O)N(C)C)C[C@H]5C)nc4)cc3OC(F)(F)F)cc2)c(Cl)[nH]1)C(C)C` [Example 10-4]: the EC50 fell in the range of 0.1 to 1 nM.

Turning to `COC(=O)NC(C(=O)N1C[C@@H](C)C[C@H]1c1nc(-c2ccc(-c3c(F)cc(NC(=O)c4ccc(N5CCN(C(=O)C(C)(C)C)C[C@H]5C)nc4)cc3F)cc2)c[nH]1)C1CCS(=O)(=O)CC1` (some centres unmarked) [Example 21-2], the EC50 lay within 10 to 1000 nM.

For the compound `COCC(=O)N1CCC[C@@]1(C)C(=O)N1CCN(c2ccc(NC(=O)c3ccc(-c4ccc(-c5c[nH]c([C@@H]6C[C@@H]7CCCC[C@@H]7N6C(=O)[C@@H](NC(=O)OC)C(C)C)n5)cc4)c(OC(F)(F)F)c3)cn2)[C@H](C)C1` [Example 6-13], the EC50 was below 0.1 nM.

Turning to `COC(=O)N[C@H](C(=O)N1C[C@H](N2Cc3ccccc3C2)C[C@H]1c1nc(-c2ccc(-c3cc(Cl)c(NC(=O)c4ccc(N5CCN(C(=O)C(C)(C)C)C[C@H]5C)nc4)cc3OC(F)(F)F)cc2)c[nH]1)C(C)C` [Example 5-10], the EC50 lay in the range of 10 to 1000 nM.

For `COC(=O)N[C@H](C(=O)N1[C@H](c2nc(-c3ccc(-c4ccc(C(=O)Nc5ccc(N6CCN(C(=O)[C@]7(C)CCCN7C(=O)[C@@H](NC(=O)OC)C(C)C)C[C@H]6C)nc5)cc4OC(F)(F)F)cc3)c[nH]2)C[C@@H]2CCCC[C@@H]21)C(C)C` [Example 6-14], the EC50 was below 0.1 nM.

As to `COC(=O)N[C@H](C(=O)N1C[C@@H](C)C[C@H]1c1nc(-c2ccc(-c3cc(F)c(NC(=O)c4ccc(N5CCN(C(=O)C(C)(C)CO)C[C@H]5C)nc4)cc3OC(F)(F)F)cc2)c[nH]1)[C@H](C)O` [Example 13-26], the EC50 was below 0.1 nM.

Consider `[2H]C([2H])([2H])C1(C([2H])([2H])[2H])C[C@@H]1C(=O)N1CCN(c2ccc(NC(=O)c3ccc(-c4ccc(-c5c[nH]c([C@@H]6C[C@H]([S+](C)[O-])CN6C(=O)[C@@H](NC(=O)OC)C(C)C)n5)cc4)c(OC(F)(F)F)c3)cn2)[C@H](C)C1` (some centres unmarked) [Example 6-20], for which the EC50 lay within 1 to 10 nM.

As for `COC(=O)N[C@H](C(=O)N1C[C@@H](C)C[C@H]1c1nc(-c2ccc(-c3cc(Cl)c(NC(=O)c4ccc(N5CCN(C(=O)C6(C)COC6)C[C@H]5C)nc4)cc3OC(F)(F)F)cc2)c[nH]1)C(C)C` [Example 12-48], the EC50 is below 0.1 nM.

Turning to `COC(=O)N[C@H](C(=O)N1[C@@H]2C[C@@H]2C[C@H]1c1nc(-c2ccc(-c3cc(Cl)c(NC(=O)c4ccc(N5CCN(C(=O)C6CC67CC7)C[C@H]5C)nc4)cc3C(F)(F)F)cc2)c[nH]1)C(C)C` (some centres unmarked) [Example 8-6], the EC50 is 0.1 to 1 nM.

On to `COC(=O)CC(=O)NCC(C)(C)C(=O)N1CCN(c2ccc(C(=O)Nc3cc(OC(F)(F)F)c(-c4ccc(-c5c[nH]c([C@@H]6C[C@H](C)CN6C(=O)[C@@H](NC(=O)OC)C(C)C)n5)cc4)cc3Cl)cn2)[C@H](C)C1` [Example 12-33], for which the EC50 lay in the range of 0.1 to 1 nM.

On to `COC(=O)N[C@H](C(=O)N1C[C@@H](C)C[C@H]1c1nc(-c2ccc(-c3cc(Cl)c(NC(=O)c4ccc(N5CCN(C(=O)C6CNC6)C[C@H]5C)nc4)cc3OC(F)(F)F)cc2)c[nH]1)C(C)C` [Example 12-51], for which the EC50 was in the range of 0.1 to 1 nM.

Regarding `COC(=O)N[C@H](C(=O)N1C[C@@H](N2CCCC2)C[C@H]1c1nc(-c2ccc(-c3cc(Cl)c(NC(=O)c4ccc(N5CCN(C(=O)C(C)(C)C)C[C@H]5C)nc4)cc3OC(F)(F)F)cc2)c[nH]1)C(C)C` [Example 15-9], the EC50 is below 0.1 nM.

For the compound `COC(=O)N[C@H](C(=O)N1C[C@@H](C)C[C@H]1c1nc(-c2ccc(-c3cc(Cl)c(NC(=O)c4ccc(N5CCN(C(=O)N(CCO)CCO)C[C@H]5C)nc4)cc3OC(F)(F)F)cc2)c[nH]1)C(C)C` [Example 12-16], the EC50 lay in the range of 0.1 to 1 nM.
